Here are results for one compound from patent publication US20230149355A1, “COMPOSITIONS AND METHODS FOR MODULATING TRP CHANNEL ACTIVITY” (priority 2020, published 2023).

By EC50 is commonly meant the concentration needed to bring the measured effect to its halfway point.

One assay concerns the target human TRPA1 (Homo sapiens, UniProt O75762). The assay is described as follows: Ca2+ influx (Calcium 6 fluorescence) in human TRPA1 expressing HEK-293T cells. Type of assay: cell-based. The procedure:
(§1) HEK-293T cells were cultured in DMEM (Thermofisher Scientific, Waltham, Mass.) and supplemented with 10% fetal bovine serum (FBS) (Thermofisher Scientific), penicillin (100 units/mL) and streptomycin (0.1 mg/mL). Cells were plated on 100 mm tissue culture plates coated with poly-D-lysine (Sigma Aldrich, Saint Louis, Mo.) and grown to ˜60% confluence. The cells were transiently transfected for 16-24 hours with either human or mouse orthologs of TRPA1 using Fugene 6 transfection reagents and Opti-MEM (Thermofisher Scientific) according to the manufacturer's protocol. Subsequently, cells were trypsinized, re-suspended and re-plated onto poly-D-lysine coated 96-well plates (Krystal black walled plates, Genesee Scientific) at 5×10^5 cells/mL (100 μL/well) and allowed to grow for another 16-20 hrs prior to the experiments. Cells were maintained as monolayers in a 5% CO2 incubator at 37° C.
(§2) Measurements of changes in intracellular Ca^2+ concentrations ([Ca^2+]i) were performed as described previously (Caceres et al., 2017). In brief, cells in 96-well plates were loaded with Calcium 6, a no-wash fluorescent indicator, for 1.5 hrs (Molecular Devices, San Jose, Calif.) and then transferred to a FlexStation III benchtop scanning fluorometer chamber (Molecular Devices). Fluorescence measurements in the FlexStation were performed at 37° C. (Ex:485 nm, Em: 525 nm at every 1.8 s). After recording baseline fluorescence, agonists (indole, IAld, cinnamaldehyde) were added and fluorescence was monitored for a total of 60 s. […] The change in fluorescence was measured as Fmax-F0, where Fmax is the maximum fluorescence and F0 is the baseline fluorescence measured in each well.

For a further assay, the target named is T1, mouse TRPA1 (Mus musculus, UniProt Q8BLA8).
T1 construct: expressed in transfected cells; host or cells: HEK-293T
T1 sequence (Q8BLA8 whole entry): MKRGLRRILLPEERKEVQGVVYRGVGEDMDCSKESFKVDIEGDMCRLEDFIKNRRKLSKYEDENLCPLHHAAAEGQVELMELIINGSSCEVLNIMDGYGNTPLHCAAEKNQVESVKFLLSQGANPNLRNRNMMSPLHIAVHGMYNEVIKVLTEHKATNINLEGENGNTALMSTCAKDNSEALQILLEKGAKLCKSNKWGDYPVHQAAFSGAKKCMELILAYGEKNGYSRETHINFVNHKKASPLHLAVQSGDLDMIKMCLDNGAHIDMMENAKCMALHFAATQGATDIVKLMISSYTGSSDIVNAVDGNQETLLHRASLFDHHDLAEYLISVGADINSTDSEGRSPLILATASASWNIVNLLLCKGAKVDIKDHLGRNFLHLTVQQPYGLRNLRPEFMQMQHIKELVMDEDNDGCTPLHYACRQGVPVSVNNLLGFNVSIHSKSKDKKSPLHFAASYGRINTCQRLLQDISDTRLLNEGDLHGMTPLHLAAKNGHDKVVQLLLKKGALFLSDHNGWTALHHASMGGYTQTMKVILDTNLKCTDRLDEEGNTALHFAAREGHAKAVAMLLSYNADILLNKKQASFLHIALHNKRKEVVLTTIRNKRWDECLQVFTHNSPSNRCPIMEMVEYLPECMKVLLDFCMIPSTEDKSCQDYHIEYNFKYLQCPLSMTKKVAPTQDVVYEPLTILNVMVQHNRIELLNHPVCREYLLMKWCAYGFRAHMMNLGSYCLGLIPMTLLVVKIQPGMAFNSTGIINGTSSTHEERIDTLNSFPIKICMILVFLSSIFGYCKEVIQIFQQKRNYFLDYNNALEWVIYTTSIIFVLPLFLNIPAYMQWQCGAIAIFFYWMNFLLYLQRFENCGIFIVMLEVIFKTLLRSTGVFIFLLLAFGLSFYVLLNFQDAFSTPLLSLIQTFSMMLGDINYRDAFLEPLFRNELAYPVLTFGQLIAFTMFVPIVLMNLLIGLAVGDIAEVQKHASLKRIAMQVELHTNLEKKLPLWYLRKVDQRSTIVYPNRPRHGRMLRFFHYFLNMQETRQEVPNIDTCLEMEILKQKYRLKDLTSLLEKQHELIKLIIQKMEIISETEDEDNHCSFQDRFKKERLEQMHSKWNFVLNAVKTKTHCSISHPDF
The experiment in a line: Ca2+ influx (Calcium 6 fluorescence) in mouse Trpa1-expressing HEK-293T cells. The assay is classed as cell-based. The procedure:
as §1, §2

Another assay relates to intestinal motility. The assay is described as follows: Zebrafish intestinal motility (PIV-Lab velocity analysis). Type of assay: in vivo. Particulars: indole stimulation.
A further assay deals with vagal sensory neurons. The experiment in a line: In vivo calcium imaging of vagal sensory ganglia after microgavage. Also on record: species or system zebrafish. Here is the method:
For delivering bacterial or chemicals specifically to the intestine, the established microgavage technique (Cocchiaro and Rawls, 2013) was adopted. Zebrafish were anesthetized with 1 mg/mL α-Bungarotoxin (α-BTX) and the gavage procedure was performed as previously described using microinjection station (Cocchiaro and Rawls, 2013). For bacteria gavage experiments, 1 ml of overnight bacterial culture was harvested, pelleted, washed with PBS and resuspended in 100 ul PBS.˜8 nl was then delivered into the zebrafish intestine using microgavage. The gavaged zebrafish was then transferred into egg water and mounted in 1% LMA for imaging. For chemical gavage experiments, ˜8 nl of AITC (100 mM), indole (1 mM) and IAld (1 mM) was gavaged into the intestine.
Tg(neurod1:Gcamp6f); Tg(neurod1:TagRFP) zebrafish were used to record vagal sensory ganglia calcium activity in vivo. Zebrafish were anesthetized with 1 mg/mL α-Bungarotoxin (α-BTX) and gavaged with chemical compounds or bacteria as described (Naumann et al., 2016). Zebrafish larvae were mounted in 1% LMA and imaged under a Zeiss 780 upright confocal microscope. Z-stack images of the entire vagal ganglia were collected as serial images at 10 mins/frame and processed in FIJI. Individual vagal sensory neurons were identified and the Gcamp6f to TagRFP fluorescence ratios of individual vagal sensory neurons were calculated.

For a further assay, the system named is mouse duodenum. The assay is described as follows: Amperometric measurement of 5-HT secretion, mouse small intestine. The settings on record: 10 mM Indole. An excerpt: (§3) These experiments using C57BL/6J mice were approved by the Flinders University Animal Welfare Committee (number 965-19) and human ileum tissue was collected from resected small and large intestine from patients that gave written informed consent under the approval of the Southern Adelaide Clinical Human Research Ethics Committee (number 50.07) as previous (Sun et al., 2019a). Mice were euthanized at 8 to 12 weeks by isoflurane overdose followed by cervical dislocation. The duodenum was removed and placed in Krebs solution oxygenated with 95% O2, 5% CO2. A midline incision was made along the duodenum to create a flat sheet, the section was pinned with the mucosal side up in an organ bath lined with Sylgard and containing oxygenated Krebs solution. Serotonin release was measured using amperometry. A carbon-fibre electrode (5-μm diameter, ProCFE; Dagan Corporation, Minneapolis, Minn.), was lowered above the mucosa and 400 mV potential was applied to the electrode causing oxidation of serotonin (Zelkas et al., 2015). […] The change in amplitude due to serotonin oxidation was recorded using an EPC-10 amplifier and Pulse software (HEKA Electronic, Lambrecht/Pfalz, Germany), and samples at 10 kHz and low-pass filtered at 1 kHz. Data was assessed as peak current during each treatment. Data was analyzed comparing all groups using one-way ANOVA with Tukey's post-hoc test. […]

Another assay deals with human ileum. The assay is described as follows: Amperometric measurement of 5-HT secretion, human small intestine. Particulars: 10 mM Indole.
Text: as §3

Sequence of human TRPA1 (O75762 whole entry): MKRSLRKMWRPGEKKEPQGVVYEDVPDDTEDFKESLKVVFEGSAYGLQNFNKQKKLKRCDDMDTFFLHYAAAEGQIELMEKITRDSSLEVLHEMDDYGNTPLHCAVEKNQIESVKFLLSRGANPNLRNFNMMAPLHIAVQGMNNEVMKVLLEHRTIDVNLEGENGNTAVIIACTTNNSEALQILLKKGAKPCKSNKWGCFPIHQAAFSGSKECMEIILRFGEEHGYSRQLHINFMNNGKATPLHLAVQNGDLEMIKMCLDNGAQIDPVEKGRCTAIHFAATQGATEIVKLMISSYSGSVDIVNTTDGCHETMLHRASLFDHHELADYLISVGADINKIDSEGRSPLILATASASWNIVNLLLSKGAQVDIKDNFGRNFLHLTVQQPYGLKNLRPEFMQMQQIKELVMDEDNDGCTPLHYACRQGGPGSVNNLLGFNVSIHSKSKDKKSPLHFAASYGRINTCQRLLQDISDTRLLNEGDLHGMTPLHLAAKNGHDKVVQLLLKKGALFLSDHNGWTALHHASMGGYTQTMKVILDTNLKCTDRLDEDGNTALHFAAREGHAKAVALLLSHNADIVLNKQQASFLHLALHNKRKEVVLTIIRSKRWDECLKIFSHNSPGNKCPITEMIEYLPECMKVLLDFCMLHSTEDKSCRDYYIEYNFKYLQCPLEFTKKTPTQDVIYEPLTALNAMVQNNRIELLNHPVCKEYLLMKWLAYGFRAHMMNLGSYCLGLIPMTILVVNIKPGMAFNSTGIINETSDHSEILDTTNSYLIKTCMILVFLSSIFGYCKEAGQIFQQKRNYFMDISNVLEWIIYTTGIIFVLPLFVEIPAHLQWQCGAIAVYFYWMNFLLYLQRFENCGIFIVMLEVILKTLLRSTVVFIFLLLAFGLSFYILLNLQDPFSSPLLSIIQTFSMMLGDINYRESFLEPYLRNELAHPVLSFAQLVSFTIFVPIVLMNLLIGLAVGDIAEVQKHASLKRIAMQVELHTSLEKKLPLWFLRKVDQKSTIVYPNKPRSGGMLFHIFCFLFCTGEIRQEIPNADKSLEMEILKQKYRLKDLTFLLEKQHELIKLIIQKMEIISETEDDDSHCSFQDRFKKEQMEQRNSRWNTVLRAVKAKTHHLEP
Procedure for intestinal motility: For EEC Trpa1 activation using the Optovin platform, zebrafish larvae were treated with 10 μM Optovin overnight. Following Optovin treatment, unanesthetized zebrafish were mounted in 1% LMA and imaged under a 780 upright Zeiss confocal microscope using 20× water objective lenses. For all the experiments, the mid-intestine region was imaged (FIG. 10D). The intestinal epithelium was selected as the region of interest (ROI) (FIG. 10A). Serial images were obtained at 1 s/frame. A 405 nm pulse of light was applied to the ROI at 1 pulse/10 s. For some experiments (FIG. 7D-F, FIG. 10B-G), the images were obtained at 10 s/frame.
The zebrafish intestinal motility is quantified through recorded image series of zebrafish intestine using the method similar as previously described (Ganz et al., 2018). Intestinal p velocity and v velocity were used to estimate intestinal motility in zebrafish as previously described using the PIV-Lab MATLAB app (Ganz et al., 2018). A positive value of the μ velocity indicates an anterograde intestinal movement and a negative value of the μ velocity indicates a retrograde intestinal movement. The time-course p velocity number is plotted as heatmaps. When calculating the mean velocity, only the mean velocity magnitude was calculated, which therefore doesn't account for the movement direction. The MTrackJ FIJI plugin was used to quantify the mean velocity magnitude (Meijering et al., 2012).

Regarding `c1ccc2[nH]ccc2c1` [Indole], the “Activation of human TRPA1 receptor transfected into HEK cells” value on human TRPA1 is reported as “activated”. Further, the EC50 on human TRPA1 was found to be 88.7 µM; at mouse TRPA1 it was 131 µM. Also, the TRPA1 agonist efficacy result at human TRPA1 (efficiency comparable to cinnamaldehyde (CAD)) is listed as “full TRPA1 agonist activity”. In addition, the “Activation of mouse Trpa1” value at mouse TRPA1 (compared with human TRPA1) is on record as “activated mouse Trpa1, but in a less potent manner”. Besides, the “Intestinal motility on stimulation of zebrafish larvae” value with intestinal motility was “increases intestinal motility”. Besides, the “Vagal sensory neuron activation in larvae lacking EECs” value in the assay with vagal sensory neurons (EEC-ablated zebrafish, enteric indole) is reported as “abrogated”. Further, the “Gcamp6f fluorescence in a subset of vagal sensory neurons” value in the assay on vagal sensory neurons (WT, enteric microgavage ~8 nl, AITC 100 mM, indole 1 mM, IAld 1 mM) is given as “increased”. Further, in the assay with mouse duodenum, the “5-HT secretion in mouse duodenum” value is given as “significant increase”. In addition, the “5-HT secretion in human ileum” value with human ileum is reported as “significant increase”.
